Measurements from patent US20240148718A1, “INHIBITING MUTANT ISOCITRATE DEHYDROGENASE 1 (mIDH-1)” (FORMA Therapeutics, Inc., priority 2018, published 2024).

Key:
[1] = system: AML/MDS harboring IDH1-R132 mutations; assay: Phase 1 dose escalation and expansion study, investigator-assessed response; assay type: in vivo, human
[2] = system: IDH1m clone in AML patients; assay: IDH1 Variant Allele Frequency (VAF) analysis in Phase 1 patients; assay type: in vivo, human
Description: Next generation sequencing was carried out through target enrichment using HaloPlex® Target followed by Illumina® sequencing; coverage>100X across 75 genes. Digitial droplet PCR (ddPCR) was carried out through an input of 20 ng on a Stilla 3-channel system; VAF data based on >20,000 droplets.
25 patients achieved an objective response and 6 patients with SD had available longitudinal samples for analysis (VAF at C3).

BCL6 = BCL6 (Homo sapiens, UniProt P41182); assay: Surface Plasmon Resonance (SPR), control surface; assay type: binding; settings: immobilized unrelated protein BCL6

Compound: C[C@H](Nc1ccc(C#N)n(C)c1=O)c1cc2cc(Cl)ccc2[nH]c1=O [Compound 1, 5-{[(1S)-1-(6-chloro-2-oxo-1,2-dihydroquinolin-3-yl)ethyl]amino}-1-methyl-6-oxo-1,6-dihydropyridine-2-carbonitrile]
- CR/CRm, n (%) ([1]; All Pts): 5 (16) n (%)
- CRh, n (%) ([1]; All Pts): 3 (9) n (%)
- Marrow CR, n (%) ([1]; All Pts): 1 (3) n (%)
- PD, n (%) ([1]; All Pts): 3 (9) n (%)
- CR/CRm, n (%) ([1]; R/R AML): 4 (18) n (%)
- CRh, n (%) ([1]; R/R AML): 3 (14) n (%)
- Cri, n (%) ([1]; R/R AML): 2 (9) n (%)
- NE, n (%) ([1]; R/R AML): 6 (27) n (%)
- PD, n (%) ([1]; R/R AML): 2 (9) n (%)
- pts achieving ORR ([1]; R/R AML): 41%
- patients with clearance/significant reduction of the IDH1m VAF ([2]; 3 of 6 patients with stable disease): 50%
- patients with IDH1 mutation clearance/significant VAF reduction ([2]; 10 of 25 patients with an IWG (objective) response, single agent or with azacitidine, VAF at ≥C3): 40%
- IDH1 mutation and 2-HG, case study 2 ([2]; one treatment naive AML secondary to MDS patient, single agent, stable for 15 cycles, no IWG response): IDH1 mutation clearance and normalization of 2-HG were observed
- binding to control surface (BCL6): no binding was observed
